Assay: recombinant barcode read abundance after kanamycin selection (control-corrected) (log10(CPM+1)); higher = more efficient recombination; sequences stand for … in AGTGCAGAGAAAATCGGCCAGTTTTCTCTGCCTGCAGTCCGCATGCCGT…AGATTTATGCAGCGGACTGCCTTTCTCCCAAAGTGATAAACCGGACAGTATCATGGACCGGTTTTCCCGGTAATCCGTATTTGCAAGGTTGGTTTCACT; site = the 11-nt target
In short: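 Oligos holding a promoter, target, barcode and the J23119-driven first 104 bases of the bridge RNA were Gibson-cloned into a vector that supplied the other 73 bp plus a T7-inducible recombinase. This library was co-electroporated with a donor plasmid into E. coli. Two replicates went on chloramphenicol/ampicillin LB agar (control) and two on chloramphenicol/ampicillin/kanamycin with 0.1 mM IPTG. Recombination efficiency is read from averaged, control-corrected barcode counts per million at recombinant junctions, reported as log10(CPM+1).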
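Note: IS621 recombinase and bridge RNA in Escherichia coli cells.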

| Sequence | recombinant barcode read abundance (log10) |
| --- | --- |
| CAAAATTCTTGGGTTCTAACCTGTTGCGT (site CAAAATTCTAC) | 0.703 |
| CAAAATTCTTGGGTTCTAACCTGTTGCGT (site CAGAATACTAC) | 0.0891 |
| CAAACAGCTTGGGTTCTAACCTGTTGCCT (site CAAACAACTAG) | 0.0742 |
| CAAACAGCTTGGGTTCTAACCTGTTGCCT (site CAAACACCTAG) | 0.634 |
| CAAACAGCTTGGGTTCTAACCTGTTGCCT (site CAAACAGCTAG) | 0.824 |
| CAAACAGCTTGGGTTCTAACCTGTTGCCT (site CAAACATCTAG) | 0.113 |
| CAAACCGCTTGGGTTCTAACCTGTTGCCT (site CAAACCGCTAG) | 1.14 |
| CAAACCGCTTGGGTTCTAACCTGTTGCCT (site CCAACCGCTAG) | 0.0884 |
| CAAACCGCTTGGGTTCTAACCTGTTGCCT (site CGAACCGCTAG) | 0.356 |
| CAAACCGCTTGGGTTCTAACCTGTTGCCT (site CTAACCGCTAG) | 0.117 |
| CAAACTCCTTGGGTTCTAACCTGTTGCGT (site CAAACTCCTAA) | 0.124 |
| CAAACTCCTTGGGTTCTAACCTGTTGCGT (site CAAACTCCTAC) | 0.951 |
| CAAACTCCTTGGGTTCTAACCTGTTGCGT (site CAAACTCCTAG) | 0.0424 |
| CAAACTCCTTGGGTTCTAACCTGTTGCGT (site CAAACTCCTAT) | 0.0528 |
| CAAAGATCTTGGGTTCTAACCTGTTGCCT (site CAAAGATCTAG) | 0.821 |
| CAAAGATCTTGGGTTCTAACCTGTTGCCT (site CCAAGATCTAG) | 0 |
| CAAAGATCTTGGGTTCTAACCTGTTGCCT (site CGAAGATCTAG) | 0.023 |
| CAAAGATCTTGGGTTCTAACCTGTTGCCT (site CTAAGATCTAG) | 0.165 |
| CAAATAACTTGGGTTCTAACCTGTTGCCT (site CAAATAACTAG) | 0.461 |
| CAAATAACTTGGGTTCTAACCTGTTGCCT (site CAGCTAACTAG) | 0.134 |
| CAAATCCCTTGGGTTCTAACCTGTTGCGT (site ATCGAGTCTTG) | 0.174 |
| CAAATCCCTTGGGTTCTAACCTGTTGCGT (site CAAATCCCTAC) | 2.08 |

| Sequence | recombinant barcode read abundance (log10) |
| --- | --- |
| CAACACTCTTGGGTTCTAACCTGTTGCCT (site CAACACTCTAG) | 2.43 |
| CAACACTCTTGGGTTCTAACCTGTTGCCT (site CCACACTCTAG) | 0.452 |
| CAACACTCTTGGGTTCTAACCTGTTGCCT (site CGACACTCTAG) | 0.102 |
| CAACACTCTTGGGTTCTAACCTGTTGCCT (site CTACACTCTAG) | 0.446 |
| CAACCGTCTTGGGTTCTAACCTGTTGCCT (site CAACCGACTAG) | 0 |
| CAACCGTCTTGGGTTCTAACCTGTTGCCT (site CAACCGCCTAG) | 0.439 |
| CAACCGTCTTGGGTTCTAACCTGTTGCCT (site CAACCGGCTAG) | 0.0528 |
| CAACCGTCTTGGGTTCTAACCTGTTGCCT (site CAACCGTCTAG) | 1.33 |
| CAACGACCTTGGGTTCTAACCTGTTGCCT (site AAACGACCTAG) | 0.172 |
| CAACGACCTTGGGTTCTAACCTGTTGCCT (site CAACGACCTAG) | 1.75 |
| CAACGACCTTGGGTTCTAACCTGTTGCCT (site GAACGACCTAG) | 0.171 |
| CAACGACCTTGGGTTCTAACCTGTTGCCT (site TAACGACCTAG) | 0.166 |
| CAACGAGCTTGGGTTCTAACCTGTTGCCG (site CAACGAGCTCG) | 0.506 |
| CAACGAGCTTGGGTTCTAACCTGTTGCCG (site CACCGAGCTCG) | 0.186 |
| CAACGAGCTTGGGTTCTAACCTGTTGCCG (site CAGCGAGCTCG) | 0 |
| CAACGAGCTTGGGTTCTAACCTGTTGCCG (site CATCGAGCTCG) | 0.218 |
| CAACGGCCTTGGGTTCTAACCTGTTGCCT (site CAAAGGCCTAG) | 0 |
| CAACGGCCTTGGGTTCTAACCTGTTGCCT (site CAACGGCCTAG) | 0.796 |
| CAACGGCCTTGGGTTCTAACCTGTTGCCT (site CAAGGGCCTAG) | 0.55 |
| CAACGGCCTTGGGTTCTAACCTGTTGCCT (site CAATGGCCTAG) | 0.0566 |
| CAACTAGCTTGGGTTCTAACCTGTTGCAT (site CAACTAGCTAT) | 0.691 |

Reference: the supplement of paper PMC11208160
